“Also recorded” adds a separate entry of the source.
Columns and labels:
mammalian retroviruses = details: millimolar concentrations; measured by release of reverse transcriptase; cited from earlier work
Mammalian rotaviruses = details: millimolar concentrations; cited from earlier work
[1] = system: Arabidopsis thaliana ars27A mutant; details: in comparison with the wild type; cited from earlier work
[2] = system: SV40-transformed Balb 3T3 cells; details: cited from earlier work
[3] = system: tomato spotted wilt virus; details: tomato and tobacco plants; cited from earlier work
recombinant MPS-1 = target: T1, recombinant MPS-1 (Homo sapiens, UniProt P42677); test: Gel shift assay and Zn65 removal with recombinant MPS-1; type: biochemical; details: for zinc dependent binding of recombinant MPS-1 to DNA: gel shift assays
T1 construct: made in house
Excerpt: MPS-1 is a ubiquitous tumor marker and cell growth stimulator and is described in detail in the inventors' U.S. Pat. No. 5,243,041. MPS-1 has one zinc finger domain of the type CCCC. […] This is detected by a change in the electrophoretic mobility of MPS-1 under non-denaturing conditions. These experiments indicate that picolinic acid and derivatives should remove zinc and denature various types of zinc finger, zinc ring proteins, or other types of ZF motifs whether known or heretofore undiscovered, including animal or plant viral proteins such as nucleocapsid proteins of retrovirus or the nucleocapsid proteins of Geminivirus. Furthermore, the inventors have determined that any chemical compound, whether known or heretofore undiscovered, that will remove the zinc (or other metal) and denature the proteins or that will form a ternary complex (protein-zinc-chelator) can be effective as an antiviral agent, with nontoxic effects, provided that the agent conforms with certain specific structural requirements.

virally infected cells = test: Apoptosis of virally infected cells; type: cell-based; details: for fate of viruses and host cells: HIV-1, Hepatitis C and numerous other viruses as well as the host cells
Excerpt: APOPTOSIS. Apoptosis is a morphological pattern of cell injury and an important mode of cell death (Robbins, Pathological Basis of Disease, 1999, 6th Ed). Apoptosis shares and overlaps common mechanisms with necrosis. […] This form of cell death is designed to eliminate defective, unwanted and damaged cells. For example, the inventors have shown that cells infected by Herpes Simplex Virus 1 (HSV; labialis) and HSV-2 genitalis are destroyed together with the host cells that they infected by apoptosis when exposed to pyridine carboxylates (Fernandez-Pol, Anticancer Res. 2002). […] Thus, the inventors believes that when host cells of animals or plants are infected by pathogenic viruses, unless the treatment is extremely quickly, the host cells and the virus will be destroyed. In fact, host cells defective, mutated, and reservoirs for the novo synthesis of viruses are unwanted host cells and must be eliminated in many instances to allow the survival of the organism.

Arabidopsis thaliana [4] = details: cited from earlier work
Orobache ramosa = details: Arabidopsis thaliana pre-treated with FU; cited from earlier work
HSV-1 = details: tissue culture and animals; cited from earlier work
HSV-2 = details: tissue culture and animals; cited from earlier work
[5] = system: iron incorporation into the cells; test: Kinetic and radioisotopic studies of iron in cells; type: cell-based
transformed cells = details: Kirsten sarcoma virus transformed cells; Flow Microfluorometric Analysis of DNA; cited from earlier work
NRK cells = NRK cells treated with picolinic acid; cited from earlier work
[6] = system: SV40 transformed BALB-3T3 cells; details: 3 mM picolinic acid; cited from earlier work
[7] = system: Rice suspension cells and leaves; details: cited from earlier work
Arabidopsis thaliana [8] = details: cited from earlier work; remark: listed apart in the source
[9] = system: normal cells (BALB 3T3, NRK, WI-348); test: Growth control and cell cycle arrest in normal cells

O=C(O)CN(CCN(CC(=O)O)CC(=O)O)CC(=O)O [EDTA]
disintegration of viral membranes (mammalian retroviruses): partial disintegration of viral membranes
disintegration of viral membranes (Mammalian rotaviruses): partial disintegration of the viral membranes

O=C(O)CN(CCOCCOCCN(CC(=O)O)CC(=O)O)CC(=O)O [EGTA]
disintegration of viral membranes (mammalian retroviruses): partial disintegration of viral membranes
disintegration of viral membranes (Mammalian rotaviruses): partial disintegration of the viral membranes

COS(C)(=O)=O [MMS, Methyl Methane Sulphonate]
growth of ars27A seedlings [1]: strongly inhibited

NC(=O)c1cccnc1 [Nicotinamide, reference compound]
effect on cell growth or apoptosis ([2]; 48 h): no effect on cell growth or apoptosis

NC(=O)c1ncn([C@@H]2O[C@H](CO)[C@@H](O)[C@H]2O)n1 [Ribavirin]
efficacy against tomato spotted wilt virus [3]: successfully used; also recorded: most efficient in tomato plants

CCCCc1ccc(C(=O)O)nc1 [fusaric acid, 5-butyl picolinic acid]
removal of zinc (Zn65) from the CCCC zinc finger of MPS-1 (recombinant MPS-1): remove radioactive Zn65 from MPS-1; also recorded: remove zinc
zinc dependent binding of recombinant MPS-1 to DNA (recombinant MPS-1): inhibit
fate of viruses and host cells (virally infected cells): Death by apoptosis
concentrations that reduced root growth (Arabidopsis thaliana [4]; also rapid transient membrane hyperpolarization, then large depolarization): > 500 µM
concentration eliciting plant defense responses without toxic effects (Arabidopsis thaliana [4]; in vivo): 100 nM
germination of the angiosperm parasite (Orobache ramosa): inhibited
efficacy against viral infection (HSV-1): effective
efficacy against viral infection (HSV-2): effective

O=C(O)c1ccccn1 [picolinic acid, 2-pyridine carboxylic acid]
removal of zinc (Zn65) from the CCCC zinc finger of MPS-1 (recombinant MPS-1): remove radioactive Zn65 from MPS-1; also recorded: remove zinc
zinc dependent binding of recombinant MPS-1 to DNA (recombinant MPS-1): inhibit
incorporation of iron into the cells [5]: inhibits incorporation of iron into the cells
removal of radioiron from the cells [5]: effectively removes radioiron from the cells
fate of viruses and host cells (virally infected cells): Death by apoptosis
fate of virally infected cells (virally infected cells; by apoptosis): killed
phase of cell cycle arrest (transformed cells): G1 phase
potency of prostaglandin E1 in elevating cyclic AMP (NRK cells): two to five times more potent
mitochondrial cytochrome c release [6]: released cytochrome c
sensitivity of transformed cells to apoptosis [2]: extremely sensitive to apoptosis
apoptosis ([7]; Rice suspension cells and leaves): showed apoptosis
reactive oxygen species ([7]; rice suspension cells, Ca^2+-dependent): induced reactive oxygen species (ROS)
hypersensitive response (HR) ([7]; rice): can elicit the hypersensitive response (HR)
marker defense genes PR-1, PR-2 and PDF1.2 (Arabidopsis thaliana [8]; dose-dependent and time dependent): all induced
salicylic acid-dependent and jasmonic acid/ethylene-dependent pathways (Arabidopsis thaliana [8]; in vivo): strongly activated
hypersensitive response (HR) (Arabidopsis thaliana [8]; including the oxidative burst and cell death): induced HR
toxic effects in normal cells ([9]; longer exposure (one week)): most normal cells showed no toxic effects; also recorded: no toxic effects
cell cycle arrest of normal cells ([9]; short-term treatment): arrests normal cells in G1 (Go)
